pKi: −log10 of the molar value. Like-named read-outs stand apart in the source and are kept apart here.
Columns and labels:
[1] = biological target: T1, Adenosine A1 receptor (human) membrane (Homo sapiens, UniProt P30542); assay: Determination of competitive inhibition constant (Ki) for adenosine A1 receptor, [3H]-DPCPX radioligand; assay type: binding; details: 1.0 nM [3H]-DPCPX
T1 construct: purchased PerkinElmer ES-010-M400UA
T1 sequence (P30542 1-326): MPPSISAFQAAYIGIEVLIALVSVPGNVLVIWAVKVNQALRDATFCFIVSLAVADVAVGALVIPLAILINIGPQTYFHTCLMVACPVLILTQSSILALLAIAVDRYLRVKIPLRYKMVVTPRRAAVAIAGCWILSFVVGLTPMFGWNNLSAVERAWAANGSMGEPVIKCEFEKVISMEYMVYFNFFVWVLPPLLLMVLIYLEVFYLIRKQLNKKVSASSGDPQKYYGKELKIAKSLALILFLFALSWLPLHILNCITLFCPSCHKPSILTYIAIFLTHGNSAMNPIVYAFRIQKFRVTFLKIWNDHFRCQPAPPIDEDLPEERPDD
Procedure: (§1) Test Example 1: Determination of Competitive Inhibition Constant (Ki) for Adenosine A1 and A2a Receptors
[^3H]-DPCPX (PerkinElmer, NET974250UC),
Adenosine A1 receptor (human) membrane (PerkinElmer, ES-010-M400UA),
assay buffer for A1 (25 mM HEPES, 5 mM MgCl2, 1 mM CaCl2, 100 mM NaCl, pH7.4), used to dilute adenosine A1 receptor (human) membrane and [^3H]-DPCPX;
wash buffer for A1 (25 mM HEPES, 5 mM MgCl2, 1 mM CaCl2, 100 mM NaCl, pH7.4);
(§2) Adenosine A1 receptor membrane was diluted to 0.025 μg/μl with assay buffer for A1, and Adenosine A2a receptor membrane was diluted to 0.05 μg/μl with assay buffer for A2a, so as to obtain Adenosine A1 receptor membrane dilution and Adenosine A2a receptor membrane dilution.
(§3) The compound to be tested and CGS-15943 were diluted with DMSO, and 1 W of the compound to be tested, high value control (0.5% DMSO), low value control (1000 nM CGS-15943) were added to a 96-well plate, and 100 W of Adenosine A1 receptor membrane dilution (containing 2.5 μg of membrane) was added to each well of the 96-well plate to obtain A1 detection plate; following the same steps, 100 W of Adenosine A2a receptor membrane dilution (containing 5.0 μg membrane) was added to each well of the 96-well plate to obtain A2a detection plate.
(§4) To the A1 detection plate, 100 μl of radioisotope-labeled ligand [^3H]-DPCPX (diluted with assay buffer for A1, working concentration of which was 1.0 nM) was added; and to the A2a detection plate, 100 μl of radioisotope-labeled ligand [^3H]-CGS-21680 (diluted with assay buffer for A2a, working concentration of which was 6.0 nM) was added. The A1 and A2a detection plates were sealed with tape, and incubated at room temperature for 1 h and 2 h, respectively.
(§5) Unifilter-96 GF/C filter plates were prepared, 50 μl of 0.3% PEI was added to each well of the Unifilter-96 GF/C filter plates, and the resulting filter plates were incubated at room temperature for not less than 0.5 h.
(§6) After the incubation was completed, the reaction solution was transferred from the A1 detection plate and the A2a detection plate to two Unifilter-96 GF/C filter plates, and washed with pre-cooled wash buffer for A1 and wash buffer for A2a, and then the filter plates were dried, sealed at bottom, then 50 W of Microscint 20 fluid scintillation cocktail was added, and then the filter plates were sealed at top, and counted by MicroBeta2 Reader.
(§7) Inhibition rate %=100−(signal value of test well−signal average value of low value control)/(signal average value of high value control−signal average value of low value control)*100.
(§8) EXCEL XLfit was used to fit IC50.
(§9) The calculation formula for competitive inhibition constant (Ki) was: Ki=IC50/(1+concentration of isotope-labeled ligand/Kd), wherein Kd was the dissociation constant of the isotope-labeled ligand.

[2] = biological target: T2, Adenosine A2a receptor (human) membrane (Homo sapiens, UniProt P29274); assay: Determination of competitive inhibition constant (Ki) for adenosine A2a receptor, [3H]-CGS-21680 radioligand; assay type: binding; details: for Ki(A1)/Ki(A2a): selectivity ratio A1 over A2a
T2 construct: purchased PerkinElmer RBHA2AM400UA
T2 sequence (P29274 whole entry): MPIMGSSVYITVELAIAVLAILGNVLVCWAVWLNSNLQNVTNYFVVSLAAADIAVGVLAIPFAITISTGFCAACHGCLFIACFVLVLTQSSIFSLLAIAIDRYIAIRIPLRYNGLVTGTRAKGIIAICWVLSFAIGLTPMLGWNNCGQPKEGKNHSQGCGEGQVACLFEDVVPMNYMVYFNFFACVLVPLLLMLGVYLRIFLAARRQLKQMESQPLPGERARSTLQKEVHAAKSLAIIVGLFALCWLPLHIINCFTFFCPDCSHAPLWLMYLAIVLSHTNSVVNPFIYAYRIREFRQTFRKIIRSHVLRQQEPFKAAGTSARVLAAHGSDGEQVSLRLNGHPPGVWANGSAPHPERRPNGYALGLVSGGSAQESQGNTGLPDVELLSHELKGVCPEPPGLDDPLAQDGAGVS
Procedure: as §1
Adenosine A2a receptor (human) membrane (PerkinElmer, RBHA2AM400UA),
assay buffer for A2a (50 mM Tris-HCl, 10 mM MgCl2, 1 mM EDTA, pH7.4), used to dilute adenosine A2a receptor (human) membrane (human origin) and [^3H]-CGS-21680; and
wash buffer for A2a (50 mM Tris-HCl, 154 mM NaCl, pH7.4).
as §2, §3, §4, §5, §6, §7, §8, §9

[3] = human A2a receptor membrane, 6.0 nM [3H]-CGS-21680, read-out: Ki(A2a)

Row | Compound | pKi [1] | pKi [2, 3] | Ki(A1)/Ki(A2a) [2] | pKi [2]
1 | Cc1ncnc2ccc(-c3ccc(N)nc3-c3ccc(F)cc3)cc12 [Compound 1, 6-(4-fluorophenyl)-5-(4-methylquinazolin-6-yl)pyridin-2-amine] | 5.49 | 8.02 | 339.0 | 
2 | Cc1ncnc2ccc(-c3cc(F)c(N)nc3-c3ccc(F)cc3)cc12 [Compound 2, 3-fluoro-6-(4-fluorophenyl)-5-(4-methylquinazolin-6-yl)pyridin-2-amine] | 6.16 | 8.57 | 258.6 | 
3 | Cc1ncnc2ccc(-c3cnc(N)nc3-c3ccc(F)cc3)cc12 [Compound 3, 4-(4-fluorophenyl)-5-(4-methylquinazolin-6-yl)pyrimidin-2-amine] | 6.75 | 8.80 | 111.3 | 
4 | Cc1ncnc2ccc(-c3cc(F)c(NC(=O)N(C)Cc4ccccn4)nc3-c3ccc(F)cc3)cc12 [Compound 4, 3-(3-fluoro-6-(4-fluorophenyl)-5-(4-methylquinazolin-6-yl)pyridin-2-yl)-1-methyl-1-(pyridin-2-ylmethyl)urea] | 5.25 |  | 417.3 | 7.87
5 | CNC(=O)Nc1ncc(-c2ccc3ncnc(C)c3c2)c(-c2ccc(F)cc2)n1 [Compound 5, 1-(4-(4-fluorophenyl)-5-(4-methylquinazolin-6-yl)pyrimidin-2-yl)-3-methylurea] | < 5.10 | 7.81 | >507.5 | 
6 | Cc1ncnc2ccc(-c3cnc(NC(=O)NCc4ccccn4)nc3-c3ccc(F)cc3)cc12 [Compound 6, 1-(4-(4-fluorophenyl)-5-(4-methylquinazolin-6-yl)pyrimidin-2-yl)-3-(pyridine-2-methyl)urea] | < 5.10 | 7.84 | >553.6 | 
7 | Cc1ncnc2ccc(-c3cnc(NC(=O)N(C)Cc4ccccn4)nc3-c3ccc(F)cc3)cc12 [Compound 9, 3-(4-(4-fluorophenyl)-5-(4-methylquinazolin-6-yl)pyrimidin-2-yl)-1-methyl-1-(pyridine-2-methyl)urea] | 5.91 | 8.43 | 331.8 | 
8 | Cc1ncnc2ccc(-c3cnc(NC(=O)N4CCC(C#N)CC4)nc3-c3ccc(F)cc3)cc12 [Compound 10, 4-cyano-N-(4-(4-fluorophenyl)-5-(4-methylquinazolin-6-yl)pyrimidin-2-yl) piperidine-1-carboxamide] | 6.16 | 8.33 | 146.8 | 
9 | Cc1ncnc2ccc(-c3cnc(NC(=O)N(C)c4ccccc4)nc3-c3ccc(F)cc3)cc12 [Compound 12, 3-(4-(4-fluorophenyl)-5-(4-methylquinazolin-6-yl)pyrimidin-2-yl)-1-methyl-1-phenylurea] | 5.92 | 8.06 | 137.6 | 
10 | COC1CCN(C(=O)Nc2ncc(-c3ccc4ncnc(C)c4c3)c(-c3ccc(F)cc3)n2)CC1 [Compound 13, N-(4-(4-fluorophenyl)-5-(4-methylquinazolin-6-yl)pyrimidin-2-yl)-4-methoxypiperidine-1-carboxamide] | 5.88 | 8.01 | 134.5 | 
11 | Cc1cc(-c2cnc(NC(=O)N(C)Cc3ccccn3)nc2-c2ccc(F)cc2)cc(Cl)n1 [Compound 14, 3-(5-(2-chloro-6-methylpyridin-4-yl)-4-(4-fluorophenyl)pyrimidin-2-yl)-1-methyl-1-(pyridin-2-ylmethyl)urea] | 5.27 | 8.09 | 656.1 | 
12 | CN(Cc1ccccn1)C(=O)Nc1ncc(-c2cc(Cl)nc(C(F)(F)F)c2)c(-c2ccc(F)cc2)n1 [Compound 16, 3-(5-(2-chloro-6-(trifluoromethyl)pyridin-4-yl)-4-(4-fluorophenyl)pyrimidin-2-yl)-1-methyl-1-(pyridin-2-ylmethyl)urea] | 5.11 | 7.67 | 361.6 | 
13 | Cc1cc(-c2cnc(N)nc2-c2ccc(F)cc2)cc(Cl)n1 [Compound 17, 5-(2-chloro-6-methylpyridin-4-yl)-4-(4-fluorophenyl)pyrimidin-2-amine] | 6.69 | 8.34 | 44.5 | 
14 | Cc1cc(-c2cnc(NC(=O)N3CCC(C#N)CC3)nc2-c2ccc(F)cc2)cc(Cl)n1 [Compound 18, N-(5-(2-chloro-6-methylpyridin-4-yl)-4-(4-fluorophenyl)pyrimidin-2-yl)-4-cyanopiperidine-1-carboxamide] | 5.51 | 7.72 | 162.5 | 
15 | Cc1cc(Cl)cc(-c2cnc(NC(=O)N3CCC(N4CCCCC4)CC3)nc2-c2ccc(F)cc2)c1 [Compound 21, N-(5-(3-chloro-5-methylphenyl)-4-(4-fluorophenyl)pyrimidin-2-yl)-[1,4′-dipiperidine]-1′-carboxamide] | 5.33 | 8.14 | 639.1 | 
16 | Cc1cc(Cl)cc(-c2cnc(NC(=O)N3CCC(N4CCCCC4)CC3)nc2-c2ccc(C)o2)c1 [Compound 22, N-(5-(3-chloro-5-methylphenyl)-4-(5-methylfuran-2-yl)pyrimidin-2-yl)-[1,4′-bipiperidine]-1′-carboxamide] | 5.80 | 8.18 | 240.7 | 
17 | Cc1ncnc2ccc(-c3nnc(NC(=O)N(C)Cc4ccccn4)nc3-c3ccc(F)cc3)cc12 [Compound 24, 3-(5-(4-fluorophenyl)-6-(4-methylquinazolin-6-yl)-1,2,4-triazolin-3-yl)-1-methyl-1-(pyridine-2-methyl)urea] | 5.43 |  | 139.1 | 7.57
18 | Cc1ccc(-c2nc(NC(=O)N(C)Cc3ccccn3)nnc2-c2ccc3ncnc(C)c3c2)o1 [Compound 25, 1-methyl-3-(5-(5-methylfuran-2-yl)-6-(4-methylquinazolin-6-yl)-1,2,4-triazin-3-yl)-1-(pyridin-2-yl-methyl)urea] | 6.75 |  | 45.7 | 8.41
19 | Cc1cc(-c2nnc(NC(=O)N3CCC(N4CCCCC4)CC3)nc2-c2ccc(C)o2)cc(Cl)n1 [Compound 26, N-(6-(2-chloro-6-methylpyridin-4-yl)-5-(5-methylfuran-2-yl)-1,2,4-triazin-3-yl)-[1,4′-bipiperidine]-1′-carboxamide] | 5.40 | 8.00 | 403.8 | 
20 | Cc1ccc(-c2nc(NC(=O)N3CCC(N4CCCCC4)CC3)nnc2-c2ccc3ncnc(C)c3c2)o1 [Compound 27, N-(5-(5-methylfuran-2-yl)-6-(4-methylquinazolin-6-yl)-1,2,4-triazin-3-yl)-[1,4′-bipiperidine]-1′-carboxamide] | 6.37 | 8.40 | 105.5 | 
21 | Cc1cc(Cl)cc(-c2nnc(NC(=O)N3CCC(N4CCCCC4)CC3)nc2-c2ccc(C)o2)c1 [Compound 28, N-(6-(3-chloro-5-methylphenyl)-5-(5-methylfuran-2-yl)-1,2,4-triazin-3-yl)-[1,4′-bipiperidine]-1′-carboxamide] | 5.75 | 8.05 | 197.5 | 
22 | Cc1ncnc2ccc(-c3ccc(NC(=O)N(C)Cc4ccccn4)nc3-c3ccc(F)cc3)cc12 [Compound 29, 3-(6-(4-fluorophenyl)-5-(4-methylquinazolin-6-yl)pyridin-2-yl)-1-methyl-1-(pyridine-2-methyl)urea] | 5.30 |  | 425.9 | 7.93
